Assay results: patent US6362212B1, “Oxime derivative and bactericide containing the same as active ingredient” (Shionogi & Company, Ltd., priority 1994, dated 2002)

Key:
Type in all cases: in vivo
Pyricularia oryzae = conditions: foliage spray on rice seedlings (cv. […]), number of lesions six days after the inoculation
Sphaerotheca fuliginea = assay: Controlling effect on Sphaerotheca fuliginea by foliage application (pot experiment); conditions: foliage spray on cucumber (cv. TSUKUBASHIROIBO) first leaves, infected area after 10 days in greenhouse at 20° C.
Method: The following Test Examples illustrate the effects of the fungicide of the present invention. (I. Controlling effects on various plant diseases by foliage application (pot experiment)) A test compound was dissolved in a small amount of N,N-dimethylformamide, and the solution was diluted to a given concentration with distilled water containing a spreader. Thus, a liquid sample to be tested was prepared. The liquid sample was sprayed to test plants, and 24 hours thereafter, pathogens were inoculated by the method described below. […] Seeds of cucumber ([…]) were sown in plastic cups (each 9 cm in diameter), followed by cultivation for 2 to 3 weeks. The liquid test sample in the form of a solution or suspension was sprayed on the surface of their first leaves. The pathogen was inoculated to the leaves by spraying a conidia suspension of Sphaerotheca fuliginea which had been cultured on the cucumber leaves. After the inoculation, the plants were kept in a greenhouse at 20° C. for 10 days. Then, the infected area on the leaf was observed, and the percent control was calculated.

[1] = test system: Erysiphe graminis f. sp. tritici; assay: Controlling effect on Erysiphe graminis f. sp. tritici by foliage application (pot experiment); conditions: foliage spray on wheat (cv. NORIN No. 61) seedlings, infected area after 10 days in greenhouse at 20° C.
Method: The following Test Examples illustrate the effects of the fungicide of the present invention. (I. Controlling effects on various plant diseases by foliage application (pot experiment)) A test compound was dissolved in a small amount of N,N-dimethylformamide, and the solution was diluted to a given concentration with distilled water containing a spreader. Thus, a liquid sample to be tested was prepared. The liquid sample was sprayed to test plants, and 24 hours thereafter, pathogens were inoculated by the method described below. […] The seeds of wheat (cv.: NORIN No. 61) were sown in plastic cups (each 9 cm in diameter), followed by cultivation for 2 to 3 weeks. The test compound in the form of a solution or suspension was sprayed to the seedlings, and conidia of Erysiphe graminis f. sp. tritici cultured on wheat leaves were dropped on the test plants to inoculate the plants with the pathogen. After the inoculation, the plants were kept in a greenhouse at 20° C. for 10 days. The infected area on the leaf was observed, and the percent control was calculated.

Row | Structure (SMILES) | Controlling effect on PYricularia orYzae by foliage application at 500 ppm (percent control) (Pyricularia oryzae) | Controlling effect on Sphaerotheca fuliginea by foliage application at 500 ppm (percent control) (Sphaerotheca fuliginea) | Controlling effect on ErYsiphe graminis f. sp. tritici by foliage application at 500 ppm (percent control) [1]
1 | CON=C(c1ccccc1COc1ccc(C)cc1)c1nccn1C (single isomer, unassigned) [114A] | 90 percent control | 100 percent control | 90 percent control
2 | O=C1OCc2c(Cl)c(Cl)c(Cl)c(Cl)c21 [Fthalide, reference compound] | 97 percent control | – | –
3 | CON=C(c1ccccc1COc1cccc(Cl)c1)n1cnc(C)c1 [compound 226] | 70 percent control | 70 percent control | 70 percent control
4 | CON=C(c1ccccc1COc1ccccc1)n1cnc(C)c1 [compound 221] | 70 percent control | 97 percent control | 70 percent control
5 | CON=C(c1ccccc1Oc1ccccc1)n1cccn1 [compound 300] | 70 percent control | 70 percent control | –
6 | CON=C(c1ccccc1COc1ccccc1)n1cncn1 [compound 261] | 70 percent control | 97 percent control | 97 percent control
7 | CON=C(C1=NCCN1)c1ccccc1COc1ccccc1C [compound 1460] | 90 percent control | – | 90 percent control
8 | CON=C(c1ccccc1COc1cc(C)ccc1C)c1ccnn1C (single isomer, unassigned) [1554A] | 70 percent control | – | 70 percent control
9 | CCON=C(c1ccccc1COc1ccccc1)n1cccn1 [compound 295] | 90 percent control | – | 90 percent control
10 | CON=C(c1ccccc1COc1ccccc1)n1ccnc1C [compound 241] | 70 percent control | – | –
11 | CON=C(c1noc(C)n1)c1ccccc1COc1ccccc1C [Compound No. 912] | 70 percent control | 100 percent control | 90 percent control
12 | CON=C(c1ccccc1COc1cc(C)ccc1C)n1ccnc1 [Compound No. 39] | 70 percent control | 100 percent control | –
13 | CON=C(c1ccccc1COc1ccccc1Cl)n1cnc(C)c1 [compound 225] | 70 percent control | – | –
14 | CON=C(C1=NCCO1)c1ccccc1COc1ccccc1C [compound 1310] | 70 percent control | 90 percent control | 90 percent control
15 | CON=C(c1ccccc1CON=C(C)c1ccccc1)n1ccnc1 [compound 3041] | 90 percent control | 97 percent control | –
16 | CON=C(c1ccccc1COc1ccc(Cl)cc1C)c1nccn1C (single isomer, unassigned) [141B] | 70 percent control | 100 percent control | –
17 | CON=C(c1ccon1)c1ccccc1COc1cccc(C(F)(F)F)c1 (mixture of isomers) [compound 322] | 70 percent control | 100 percent control | 70 percent control
18 | CON=C(c1ncno1)c1ccccc1COc1ccccc1 [compound 1581] | 70 percent control | 70 percent control | –
19 | CON=C(C1=NCCO1)c1ccccc1Oc1ccccc1 (single isomer, unassigned) [1341B] | – | 70 percent control | 90 percent control
20 | CON=C(C1=NCCN1)c1ccccc1COc1cccc(C)c1 (mixture of isomers) [compound 1461] | 70 percent control | – | –
21 | CON=C(c1ccccc1COc1ccc(F)cc1)c1nccn1C (single isomer, unassigned) [104A] | – | 97 percent control | 90 percent control
22 | CON=C(c1ccccc1COc1ccccc1OC)c1nccn1C (single isomer, unassigned) [118B] | 70 percent control | – | –
23 | CON=C(C1=NCCN1C)c1ccccc1COc1cccc(C(F)(F)F)c1 (single isomer, unassigned) [1122B] | – | 100 percent control | 90 percent control
24 | CON=C(c1cnco1)c1ccccc1COc1cc(C)ccc1C [compound 1734] | – | 90 percent control | 70 percent control
25 | CON=C(c1ccccc1COc1ccccc1)n1cccn1 [compound 281] | 70 percent control | – | 90 percent control
26 | CON=C(C1=NCCO1)c1ccccc1Oc1ccccc1 (single isomer, unassigned) [1341A] | – | 70 percent control | 90 percent control
27 | CON=C(c1ccccc1COc1ccc(Cl)cc1)n1cccn1 [compound 287] | 90 percent control | – | –
28 | CON=C(c1ccccc1COc1ccc(Cl)cc1)n1cnc(C)c1 [Compound No. 227] | – | 97 percent control | 70 percent control
29 | CON=C(c1noc(C)n1)c1ccccc1COc1cc(C)ccc1C (single isomer, unassigned) [936B] | – | 97 percent control | 90 percent control
